Laboratory results as given in ChEMBL document CHEMBL4219183, “Novel purine benzimidazoles as antimicrobial agents by regulating ROS generation and targeting clinically resistant Staphylococcus aureus DNA groove” (Bioorg Med Chem Lett, 2018).
Converted amounts (≈) assume the structure as drawn. The source made the active and inactive calls. The rule behind the calls is not given here.

Tests used:
DNA [1] = assay: Binding affinity to Staphylococcus aureus genomic DNA assessed as hyperchromic shift at 2.5 to 20 x 10^-6mol/L by UV absorption spectral analysis; format: nucleic-acid assay
Staphylococcus aureus [2] = assay: Antibacterial activity against methicillin-resistant Staphylococcus aureus N315 after 24 hrs by two fold serial dilution method; format: functional; settings: N315, 24 h
Enterococcus faecalis = assay: Antibacterial activity against Enterococcus faecalis after 24 hrs by two fold serial dilution method; format: functional
Staphylococcus aureus [3] = assay: Antibacterial activity against Staphylococcus aureus after 24 hrs by two fold serial dilution method; format: functional
Staphylococcus aureus [4] = assay: Antibacterial activity against Staphylococcus aureus ATCC 25923 after 24 hrs by two fold serial dilution method; format: functional; settings: ATCC 25923, 24 h
Staphylococcus aureus [5] = assay: Antibacterial activity against Staphylococcus aureus ATCC 29213 after 24 hrs by two fold serial dilution method; format: functional; settings: ATCC 29213, 24 h
Klebsiella pneumoniae = assay: Antibacterial activity against Klebsiella pneumoniae after 24 hrs by two fold serial dilution method; format: functional
Escherichia coli [6] = assay: Antibacterial activity against Escherichia coli after 24 hrs by two fold serial dilution method; format: functional
Pseudomonas aeruginosa [7] = assay: Antibacterial activity against Pseudomonas aeruginosa after 24 hrs by two fold serial dilution method; format: functional
Acinetobacter baumannii = assay: Antibacterial activity against Acinetobacter baumannii after 24 hrs by two fold serial dilution method; format: functional
Pseudomonas aeruginosa [8] = assay: Antibacterial activity against Pseudomonas aeruginosa ATCC 27853 after 24 hrs by two fold serial dilution method; format: functional; settings: ATCC 27853, 24 h
Escherichia coli [9] = assay: Antibacterial activity against Escherichia coli ATCC 25922 after 24 hrs by two fold serial dilution method; format: functional; settings: ATCC 25922, 24 h
Candida albicans [10] = assay: Antifungal activity against Candida albicans after 24 hrs by two fold serial dilution method; format: functional
Candida tropicalis = assay: Antifungal activity against Candida tropicalis after 24 hrs by two fold serial dilution method; format: functional
Aspergillus fumigatus = assay: Antifungal activity against Aspergillus fumigatus after 24 hrs by two fold serial dilution method; format: functional
Candida albicans [11] = assay: Antifungal activity against Candida albicans ATCC 90023 after 24 hrs by two fold serial dilution method; format: functional; settings: ATCC 90023, 24 h
Candida parapsilosis = assay: Antifungal activity against Candida parapsilosis ATCC 22019 after 24 hrs by two fold serial dilution method; format: functional; settings: ATCC 22019, 24 h
Staphylococcus aureus [12] = assay: Potency index, ratio of norfloxacin MIC to compound MIC for Staphylococcus aureus; format: functional
[13] = Cytotoxicity against human A549 cells assessed as cell viability at <500 ug/ml after 48 hrs by MTT assay relative to control; format: cell-based; settings: read-out: Activity
HeLa = assay: Induction of ROS generation in human HeLa cells at 6.25 to 50 uM by DCFH-DA staining based fluorescence microscopic method; format: cell-based
DNA [14] = assay: Binding affinity to Staphylococcus aureus genomic DNA by UV absorption spectral analysis; format: nucleic-acid assay
DNA [15] = assay: Inhibition of neutral red binding to Staphylococcus aureus genomic DNA up to 20 x 10^-6mol/L by UV absorption spectral analysis; format: nucleic-acid assay
DNA [16] = assay: Binding affinity to Staphylococcus aureus genomic DNA at pH 7.4 at 294 K by fluorescence quenching analysis; format: nucleic-acid assay
DNA [17] = assay: Binding affinity to Staphylococcus aureus genomic DNA at pH 7.4 at 304 K by fluorescence quenching analysis; format: nucleic-acid assay
DNA [18] = assay: Binding affinity to Staphylococcus aureus genomic DNA at pH 7.4 at 314 K by fluorescence quenching analysis; format: nucleic-acid assay
DNA [19] = assay: Binding affinity to Staphylococcus aureus genomic DNA assessed as modified Stern-Volmer quenching constant at pH 7.4 at 294 K by fluorescence quenching analysis; format: nucleic-acid assay
DNA [20] = assay: Binding affinity to Staphylococcus aureus genomic DNA assessed as modified Stern-Volmer quenching constant at pH 7.4 at 304 K by fluorescence quenching analysis; format: nucleic-acid assay
DNA [21] = assay: Binding affinity to Staphylococcus aureus genomic DNA assessed as modified Stern-Volmer quenching constant at pH 7.4 at 314 K by fluorescence quenching analysis; format: nucleic-acid assay
DNA [22] = assay: Binding affinity to Staphylococcus aureus genomic DNA assessed as iodide quenching constant at pH 7.4 by fluorescence quenching analysis (reference value: 28.74 L/mol); format: nucleic-acid assay
DNA [23] = assay: Binding affinity to Staphylococcus aureus genomic DNA assessed as change in enthalpy at 304 K; format: nucleic-acid assay
DNA [24] = assay: Binding affinity to Staphylococcus aureus genomic DNA assessed as gibbs free energy change at 294 K; format: nucleic-acid assay
DNA [25] = assay: Binding affinity to Staphylococcus aureus genomic DNA assessed as gibbs free energy change at 304 K; format: nucleic-acid assay
DNA [26] = assay: Binding affinity to Staphylococcus aureus genomic DNA assessed as gibbs free energy change at 314 K; format: nucleic-acid assay
DNA [27] = assay: Binding affinity to Staphylococcus aureus genomic DNA assessed as change in entropy at 304 K; format: nucleic-acid assay

SMILES | MIC (Staphylococcus aureus [2]) | MIC (Enterococcus faecalis) | MIC (Staphylococcus aureus [3]) | MIC (Staphylococcus aureus [4]) | MIC (Staphylococcus aureus [5]) | MIC (Klebsiella pneumoniae) | MIC (Escherichia coli [6]) | MIC (Pseudomonas aeruginosa [7]) | MIC (Acinetobacter baumannii) | MIC (Pseudomonas aeruginosa [8]) | MIC (Escherichia coli [9]) | MIC80 (Candida albicans [10]) | MIC80 (Candida tropicalis) | MIC80 (Aspergillus fumigatus) | MIC80 (Candida albicans [11]) | MIC80 (Candida parapsilosis) | other results
CCCCCCn1c(Cn2cnc3c(N4CCOCC4)ncnc32)nc2ccccc21 | 16 µg/mL (≈ 38.1 µM) | 128 µg/mL (≈ 305 µM) | 4 µg/mL (≈ 9.53 µM) | 64 µg/mL (≈ 153 µM) | 512 µg/mL (≈ 1220 µM) | 64 µg/mL (≈ 153 µM) | 128 µg/mL (≈ 305 µM) | 64 µg/mL (≈ 153 µM) | 64 µg/mL (≈ 153 µM) | 16 µg/mL (≈ 38.1 µM) | 8 µg/mL (≈ 19.1 µM) | 32 µg/mL (≈ 76.3 µM) | 64 µg/mL (≈ 153 µM) | 128 µg/mL (≈ 305 µM) | 32 µg/mL (≈ 76.3 µM) | 128 µg/mL (≈ 305 µM) | Activity (DNA [1]): Active; Ratio (Staphylococcus aureus [12]): 16; viability at 48 h [13]: > 85%; Activity (HeLa): Non-Toxic; K (DNA [14]): 4.92 ×10⁵ L/mol; inhibition (DNA [15]): inactive; KSV (DNA [16]): 1.87 ×10⁴ L/mol; KSV (DNA [17]): 1.52 ×10⁴ L/mol; KSV (DNA [18]): 1.21 ×10⁴ L/mol; Ka (DNA [19]): 3.76 ×10⁴ L/mol; Ka (DNA [20]): 2.33 ×10⁴ L/mol; Ka (DNA [21]): 1.73 ×10⁴ L/mol; KSV (DNA [22]): 78.2 L/mol; deltaH (DNA [23]): -7.12 kcal/mol; deltaG (DNA [24]): -6.16 kcal/mol; deltaG (DNA [25]): -6.13 kcal/mol; deltaG (DNA [26]): -6.09 kcal/mol; deltaS (DNA [27]): -13.6 J/mol.K
CC(=O)c1nc2ccccc2n1CCn1cnc2c(N3CCOCC3)ncnc21 | 256 µg/mL (≈ 654 µM) | 64 µg/mL (≈ 164 µM) | 32 µg/mL (≈ 81.8 µM) | 64 µg/mL (≈ 164 µM) | 128 µg/mL (≈ 327 µM) | 32 µg/mL (≈ 81.8 µM) | 128 µg/mL (≈ 327 µM) | 8 µg/mL (≈ 20.4 µM) | 64 µg/mL (≈ 164 µM) | 32 µg/mL (≈ 81.8 µM) | 128 µg/mL (≈ 327 µM) | 256 µg/mL (≈ 654 µM) | 256 µg/mL (≈ 654 µM) | 128 µg/mL (≈ 327 µM) | 128 µg/mL (≈ 327 µM) | 512 µg/mL (≈ 1310 µM) | 
Clc1ccc(Cn2c(Cn3cnc4c(N5CCOCC5)ncnc43)nc3ccccc32)cc1 | 512 µg/mL (≈ 1110 µM) | 256 µg/mL (≈ 557 µM) | 512 µg/mL (≈ 1110 µM) | 128 µg/mL (≈ 278 µM) | 256 µg/mL (≈ 557 µM) | 256 µg/mL (≈ 557 µM) | 256 µg/mL (≈ 557 µM) | 512 µg/mL (≈ 1110 µM) | 512 µg/mL (≈ 1110 µM) | 128 µg/mL (≈ 278 µM) | 256 µg/mL (≈ 557 µM) | 256 µg/mL (≈ 557 µM) | 64 µg/mL (≈ 139 µM) | 256 µg/mL (≈ 557 µM) | 128 µg/mL (≈ 278 µM) | 512 µg/mL (≈ 1110 µM) | 
Fc1ccc(Cn2c(Cn3cnc4c(N5CCOCC5)ncnc43)nc3ccccc32)cc1 | 256 µg/mL (≈ 577 µM) | 256 µg/mL (≈ 577 µM) | 512 µg/mL (≈ 1150 µM) | 64 µg/mL (≈ 144 µM) | 256 µg/mL (≈ 577 µM) | 128 µg/mL (≈ 289 µM) | 128 µg/mL (≈ 289 µM) | 256 µg/mL (≈ 577 µM) | 256 µg/mL (≈ 577 µM) | 64 µg/mL (≈ 144 µM) | 256 µg/mL (≈ 577 µM) | 256 µg/mL (≈ 577 µM) | 64 µg/mL (≈ 144 µM) | 256 µg/mL (≈ 577 µM) | 128 µg/mL (≈ 289 µM) | 256 µg/mL (≈ 577 µM) | 
c1ccc2c(c1)ncn2CCn1cnc2c(N3CCOCC3)ncnc21 | 256 µg/mL (≈ 733 µM) | 128 µg/mL (≈ 366 µM) | 256 µg/mL (≈ 733 µM) | 256 µg/mL (≈ 733 µM) | 256 µg/mL (≈ 733 µM) | 256 µg/mL (≈ 733 µM) | 256 µg/mL (≈ 733 µM) | 128 µg/mL (≈ 366 µM) | 256 µg/mL (≈ 733 µM) | 256 µg/mL (≈ 733 µM) | 128 µg/mL (≈ 366 µM) | 256 µg/mL (≈ 733 µM) | 256 µg/mL (≈ 733 µM) | 256 µg/mL (≈ 733 µM) | 128 µg/mL (≈ 366 µM) | 128 µg/mL (≈ 366 µM) | 
Cc1nc2cc([N+](=O)[O-])ccc2n1CCn1cnc2c(N3CCOCC3)ncnc21 | 256 µg/mL (≈ 627 µM) | 128 µg/mL (≈ 313 µM) | 16 µg/mL (≈ 39.2 µM) | 128 µg/mL (≈ 313 µM) | 64 µg/mL (≈ 157 µM) | 128 µg/mL (≈ 313 µM) | 128 µg/mL (≈ 313 µM) | 64 µg/mL (≈ 157 µM) | 32 µg/mL (≈ 78.4 µM) | 64 µg/mL (≈ 157 µM) | 16 µg/mL (≈ 39.2 µM) | 512 µg/mL (≈ 1250 µM) | 64 µg/mL (≈ 157 µM) | 128 µg/mL (≈ 313 µM) | 256 µg/mL (≈ 627 µM) | 256 µg/mL (≈ 627 µM) | 
C#CCn1c(Cn2cnc3c(N4CCOCC4)ncnc32)nc2ccccc21 | 512 µg/mL (≈ 1370 µM) | 256 µg/mL (≈ 686 µM) | 128 µg/mL (≈ 343 µM) | 128 µg/mL (≈ 343 µM) | 256 µg/mL (≈ 686 µM) | 128 µg/mL (≈ 343 µM) | 128 µg/mL (≈ 343 µM) | 256 µg/mL (≈ 686 µM) | 256 µg/mL (≈ 686 µM) | 128 µg/mL (≈ 343 µM) | 512 µg/mL (≈ 1370 µM) | 256 µg/mL (≈ 686 µM) | 128 µg/mL (≈ 343 µM) | 512 µg/mL (≈ 1370 µM) | 256 µg/mL (≈ 686 µM) | 256 µg/mL (≈ 686 µM) | 
CCCCCCCCn1c(Cn2cnc3c(N4CCOCC4)ncnc32)nc2ccccc21 | 512 µg/mL (≈ 1140 µM) | 256 µg/mL (≈ 572 µM) | 512 µg/mL (≈ 1140 µM) | 512 µg/mL (≈ 1140 µM) | 256 µg/mL (≈ 572 µM) | 256 µg/mL (≈ 572 µM) | 256 µg/mL (≈ 572 µM) | 256 µg/mL (≈ 572 µM) | 256 µg/mL (≈ 572 µM) | 128 µg/mL (≈ 286 µM) | 256 µg/mL (≈ 572 µM) | 256 µg/mL (≈ 572 µM) | 256 µg/mL (≈ 572 µM) | 512 µg/mL (≈ 1140 µM) | 64 µg/mL (≈ 143 µM) | 512 µg/mL (≈ 1140 µM) | 
